Source: patent publication US9417257B2, “System and method for collecting, storing, processing, transmitting and presenting very low amplitude signals” (Nativis, Inc., priority 2004, dated 2016)
Where a SMILES comes first, the peptide text is derived from it. [ ]: non-standard residue; d: D form. Nle = CCCC[C@H](N)C(=O)O

Columns and labels:
20S proteasome = molecular target: T1, 20S proteasome (Homo sapiens, UniProt P28074); experiment: 20S proteasome assay, cleavage of Suc-Leu-Leu-Val-Tyr-AMC (fluorescence); type: biochemical
T1 construct: purchased EMD Biosciences 539158
Description: The 20S proteasome enzyme is activated with a mild detergent (SDS). The cleavage of the substrate Suc-Leu-Leu-Val-Tyr-AMC by the activated enzyme liberates the fluorescent AMC molecules that can be monitored by exciting AMC at 380 nm and detecting the fluorescence at 460 nm. Proteosome activity is inhibited by phepropeptin D.
In a first study, the ability of phepropeptin D and a MIDS signal of phepropeptin D to inhibit proteosome activity, as measured by the appearance of conversion of the substrate Suc-Leu-Leu-Val-Tyr-AMC to yield a fluorescent signal were measured, following substantially the same methodology described above and in the examples.
The 20S Proteasome assay kit (EMD Biosciences Cat #539158) was adapted for use in a cuvette format with a final volume of 200 μl. Nine samples were set-up using the following procedure:
Reaction buffer (20×) was diluted, 100 μl with 880 μl of HPLC grade water and 20 μl of 100× activation buffer to a final volume of 1 ml.
100 μl of the diluted 2× reaction buffer was added to each of the no enzyme control tubes.
The 20S proteasome enzyme was added to the remaining solution, 3.2 μl to 800 μl of 2× reaction buffer and 100 μl added to each of 7 remaining tubes.
To each tube 100 μl of water or water and inhibitor were added.
In a separate tube 4 μl of the substrate was diluted with 96 μl of HPLC grade water and 10 μl/tube of the diluted substrate was added to each of the reaction tubes to obtain a final volume of 200 μl.
Samples were all mixed by repeated pipetting and the reactions incubated at 37 C for 2 hrs.
Fluorescence was quantiated and recorded using a fluorometer (Turner Designs, Sunnyvale, Calif.—Model TD-700).
In a follow-up study, samples were allowed to incubate at room temperature overnight to determine if the substrate would continue to be converted to the fluorescent product. […]

[1] = test system: araC-PBAD promoter dependent expression of GFPuv; experiment: Induction of araC-PBAD GFPuv reporter in pBAD-GFPuv transformed JM109 bacteria, whole cell fluorescence; type: cell-based, E coli; details: MIDS = signal playback
Description: The reporter system for sugar sensing was obtained from a commercial supplier. In this system, bacteria are transformed with a plasmid that consists of the gene for AraC, which acts as an activator of the ara operon, and the gene for a variant green florescent protein, under the control of the PBAD promoter. L-arabinose specifically binds to araC and rapidly turns on transcription in a time dependent fashion reaching a maximum expression level within 3 hr as monitored by intact whole cell fluorescence of the expressed GFP. GFPuv expression is linear with dose over two logs of concentration of L-arabinose (1-500 uM).
The inherent (MIDS) emission signals of L and D-arabinose are obtained as detailed above, employing a 0.1 mM solution of L(+) Ara or D(+) Ara for signal recording, and the autocorrelation/FFT method for identifying optimized time-domain signals.
Transduction experiments were performed with two sets of coils. In the first system, a pair of coils consisting of 30 gauge aluminum wire was wound around a 3″ tall section of PVC core with 2⅝″ o.d., wound to 35× the number of windings of starting coils. These were place inside aluminum Faraday boxes 5½×4″×8¾″ (W×H×D) to isolate samples for crossover RF signals. Both boxes were placed upon the orbital shaker platform to aerate transducing cultures.
In the second set of three 4″ tall stock 4000-ft spools of 28G insulated copper wired with 1″ i.d. plastic cores were directly used as transduction coils (“Mega coils”) and two coils were driven with the MIDS signals, while the third control coil was driven by a random white noise generator. In this case, all three coils were isolated in Faraday boxes, and mounted separated by 2 ft on a 6-ft plank that was fitted to the orbital shaker. This ensured that all three samples were agitated at the same speed with one shaker. Thermistor temperature probes were also place into the core of each coil proximal to the sample to provide real-time reading of temperature. Both sets of MIDS signal coils were driven at the highest input voltage setting until their temperature equilibrated near 94-97° F. from resistive heating of the wound wire. Samples were centered in the core of the coil to experience the maximum and most uniform area of RF flux. (a limitation of the current set-up was the linkage of heating with driving voltages which control RF flux).
In a typical experiment, 1-3 drops of overnight cultures of pBAD-GFPuv transformed JM109 grown in Luria broth containing 100-500 ug/ml of sodium ampicillin (LB/amp) were used to seed 50 ml fresh LB/amp. This was well mixed and 10 ml transferred to 25-ml Erlenmeyer flasks, and 0.1 ml of 100× stocks of reference chemical inducers (D or L arabinose) were added to final concentrations desired. These seeded cultures were placed into either the transduction coils, or left on the shaker platform as controls. (Another limitation of the current set up is the availability of only one shaker table, forcing a choice between incubation at controlled above ambient temperature to match the coils but without agitation, or agitation simply at ambient temperature. Also the matching of the coil temperatures varies about 2-3° F. and cannot be precisely controlled or determined). In most cases the transductions were conducted as overnight incubations.
After transduction was stopped, 1.2 ml of bacterial cell culture suspension were transferred to 1.7 ml microcentrifuge tubes and centrifuge 1-2 mins at 12,000 rpm (10,000×rcg). Supernatant broth was removed, discarded and the bacterial pellets re-suspended in 1 ml of ice-cold PBS. Washed suspensions were centrifuged again, PBS wash discarded, pellets re-suspended in fresh PBS, transferred to cuvettes to measure OD600 nm, then volumes were adjusted to match cell density among samples.
For each of the studies reported here, % Relative=[(Fluor. of L(+)ara MIDS)−(Fluor. of D(−)ara MIDS)]
Induction (Fluor. of D(−) ara MIDS).

[2] = test system: araC-PBAD promoter dependent expression of GFPuv; details: cited from earlier work
pea sprouts = experiment: Sugar pea sprout stem length, inhibition by herbicide; type: in vivo; details: 72 hour, 37° C., 100% humidity; FIG. 31
Experimental: The optimized inherent (MIDS) emission signals of glyphosphate were obtained as described in Sections II and III above, using system equipment and protocols as detailed in Examples 1 and 2 below. In one experiment, an optimized glyphosphate MIDS signal was applied to pea sprouts supported on a moist medium, with signal application over a 72 hour period at 37° C., 100% humidity. Various controls included (1) no signal, (2), the chemical Roundup®, and (3) a white noise signal. Stem length was measured within a hour after exposure to the stimulus, and 5-50 sprouts were contained in each group.

[3] = test system: MDA-MB-435 human breast tumor; experiment: MDA-MB-435 human breast tumor mouse xenograft; type: in vivo, athymic nude mice; details: day 36; outliers removed; taxol 15 mg/kg i.p. twice a wk; MIDS continuous playback
Experimental: Method: MIDS measurement was made in glass sample holders (Kimble autoinjector vials) on (1) neat solution of the preformulated taxol clinical vial, using a 1 ml tuberculin syringe, and 22G needle, to withdraw 0.7 ml from multidose vial (preserve sterility and integrity of solution, so don't syringe back in), then (2) this 0.7 ml taxol formulation will be used to dissolve additional 1 mg vials of taxol, to increase the amount of taxol relative to Cremophor®. The study was designed to evaluate the efficacy of a transduction technology to inhibit tumor growth in an in vivo human tumor mouse xenograft model, and to compare its effect to a standard chemotherapeutic treatment-taxol. 5 million MDA-MB-435 cells, in suspension, were subcutaneously injected into the flanks of athymic nude mice. Treatment began the same day of cell implant (Day 1). Animals were assigned to one of 4 groups. Each animal was monitored for tumor growth twice per week for the duration of the study. One group was treated with Taxol, Two groups were treated with transduction and one group was treated with the taxol vehicle to act as a control.
The mice were athymic nude mice nu/nu with a BALB/c background. Implanted with 5 million of breast cancer tumor line MDA-MB-435(NCI standard originally from the NCI) from American Culture Type Collection, ATCC (Rockville, Md.). […]

[4] = Experiment 1, OD-matched cells, L(+) Ara 0.2 mM, D(−) Ara 1 mM
[5] = Experiment 2, L(+) ara 0.25 mM, D(−) ara 1 mM

Row | SMILES | Fluorescence Average rfu [1, 4] | Fluorescence rfu1 [1, 4] | Fluorescence rfu2 [1, 4] | Fluorescence rfu3 [1, 4] | Fluorescence Average rfu [1, 5] | Fluorescence rfu1 [1, 5] | Fluorescence rfu2 [1, 5] | Fluorescence rfu3 [1, 5] | further results
1 | CCCC[C@@H](C=O)NC(=O)[C@H](CC(C)C)NC(=O)[C@H](CC(C)C)NC(C)=O [ALLN] (Ac-Leu-Leu-[Nle]-aldehyde) | – | – | – | – | – | – | – | – | Fluorescence relative to positive control sample #2 set to 700 (20S proteasome; 37 C, 2 hrs, MIDS 60 mG AC field): 25.83; % Normalized Fluorescence (20S proteasome; 1 hr 30 min): 4.975%; % Normalized Fluorescence (20S proteasome; 20 hrs post, room temperature overnight, removed from the field): 2.646%
2 | O=C[C@@H](O)[C@H](O)[C@H](O)CO [D(−) Ara, D(−)-arabinose] | 297.7 rfu | 297.6 rfu | 297.8 rfu | 297.7 rfu | 226.5 rfu | 226.7 rfu | 226.7 rfu | 226.1 rfu | binding of araC and activation of genes downstream of the PBAD promoter (in words) ([2]; even at 1000-fold higher concentration than L-arabinose): does not bind araC, nor activate expression of genes downstream of the PBAD promoter
3 | O=C[C@H](O)[C@@H](O)[C@@H](O)CO [L(+) Ara, L(+)-arabinose] | 833.5 rfu | 835.0 rfu | 832.7 rfu | 832.7 rfu | 939.7 rfu | 940.0 rfu | 939.4 rfu | 939.7 rfu | concentration range over which GFPuv expression is linear with dose [2]: 1 to 500 µM; potency [2]: 100 µM; time to maximum expression level of GFP ([2]; whole cell fluorescence): ≤ 3 h
4 | O=C(O)CNCP(=O)(O)O [glyphosphate, N-phosphonomethylglycine] | – | – | – | – | – | – | – | – | stem growth (in words) (pea sprouts): effective in substabtially inhibited stem growth
5 | CC(=O)O[C@H]1C(=O)[C@@]2(C)[C@H]([C@H](OC(=O)c3ccccc3)[C@]3(O)C[C@H](OC(=O)[C@H](O)[C@@H](NC(=O)c4ccccc4)c4ccccc4)C(C)=C1C3(C)C)[C@]1(OC(C)=O)CO[C@@H]1C[C@@H]2O [taxol] | – | – | – | – | – | – | – | – | tumor growth inhibition [3]: 43%
